# Measured values: US6358885B1, “Substituted phenylheterocyclic herbicides” (Mississippi State University, priority 1992, dated 2002)
# What was measured:
# bedstraw = test: Test C preemergence/postemergence greenhouse plant response rating 0 to 100; assay type: in vivo, Galium aparine; conditions: POSTEMERGENCE; for Plant response rating, Bedstraw: 0 to 100 scale
# From the text: (§1) The compounds evaluated in this test were formulated in a non-phytoxic solvent and applied to the soil surface before plant seedlings emerged (preemergence application), to water that covered the soil surface (flood application), and to plants that were in the one-to-four leaf stage (postemergence application). A sandy loam soil was used for the preemergence and postemergence tests, while a silt loam soil was used in the flood test. Water depth was approximately 2.5 cm for the flood test and was maintained at this level for the duration of the test. Plant species in the preemergence and postemergence tests consisted of barley (Hordeum vulgare), bedstraw (Galium aparine), blackgrass (Alopecurus myosuroides), chickweed (Stellaria media), corn (Zea mays), cotton (Gossypium hirsutum), crabgrass (Digitaria sanguinalis), downy brome (Bromus tectorum), giant foxtail (Setaria faberii), lambsquarters (Chenopodium album), morningglory (Ipomoea hederacea), pigweed ([…]), rape (Brassica napus), ryegrass (Lolium multiflorum), sorghum (Sorghum bicolor), soybean (Glycine max), speedwell (Veronica persica), sugar beet (Beta vulgaris), velvetleaf (Abutilon theophrasti), wheat (Triticum aestivum), wild buckwheat (Polygonum convolvulus), and wild oat (Avena fatua). All plant species were planted one day before application of the compound for the preemergence portion-of this test. Plantings of these species were adjusted to produce plants of appropriate size for the post-emergence portion of the test. […] All plant species were grown using normal greenhouse practices. Visual evaluations of injury expressed on treated plants, when compared to untreated controls, were recorded approximately fourteen to twenty one days after application of the test compound. […] A dash (-) response means no test result.
# morningglory = test: Test B preemergence/postemergence greenhouse plant response rating 0 to 10; assay type: in vivo, Ipomoea hederacea; conditions: 0 to 10 scale
# In short: (§2)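 Test chemicals were sprayed onto freshly planted seed and, concurrently, onto young plants between the one and four leaf stage. After a twelve- to sixteen-day greenhouse period, each species was visually compared with untreated controls.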
# wheat [1] = test: as above; assay type: in vivo, Triticum aestivum; conditions: 0 to 10 scale
# In short: as §2
# crabgrass = test: Test C preemergence/postemergence greenhouse plant response rating 0 to 100; assay type: in vivo, Digitaria sanguinalis; conditions: POSTEMERGENCE; for Plant response rating, Crabgrass: 0 to 100 scale
# From the text: as §1
# velvetleaf = test: Test B preemergence/postemergence greenhouse plant response rating 0 to 10; assay type: in vivo, Abutilon theophrasti; conditions: 0 to 10 scale
# In short: as §2
# cotton = test: as above; assay type: in vivo, Gossypium hirsutum; conditions: 0 to 10 scale
# In short: as §2
# wild oat = test: Test C preemergence/postemergence greenhouse plant response rating 0 to 100; assay type: in vivo, Avena fatua; conditions: POSTEMERGENCE; for Plant response rating, Wild oat: 0 to 100 scale
# From the text: as §1
# rape = test: as above; assay type: in vivo, Brassica napus; conditions: POSTEMERGENCE; for Plant response rating, Rape: 0 to 100 scale
# From the text: as §1
# wheat [2] = test: as above; assay type: in vivo, Triticum aestivum; conditions: POSTEMERGENCE; for Plant response rating, Wheat: 0 to 100 scale
# From the text: as §1
# barnyardgrass = test: Test B preemergence/postemergence greenhouse plant response rating 0 to 10; assay type: in vivo, Echinochloa crus-galli; conditions: 0 to 10 scale
# In short: as §2
# giant foxtail = test: Test C preemergence/postemergence greenhouse plant response rating 0 to 100; assay type: in vivo, Setaria faberii; conditions: POSTEMERGENCE; for Plant response rating, Giant foxtail: 0 to 100 scale
# From the text: as §1
# blackgrass = test: as above; assay type: in vivo, Alopecurus myosuroides; conditions: POSTEMERGENCE; for Plant response rating, Blackgrass: 0 to 100 scale
# From the text: as §1
structure (smiles),measurement,setting,value
COC(=O)c1cc(-c2nn3c(c2Cl)CCCC3)c(F)cc1Cl [Compound 43],"Plant response rating, Bedstraw",bedstraw; 62 g/ha,70
same,"Plant response rating, Bedstraw",bedstraw; 250 g/ha,100
same,"Plant response rating (0 to 100), Bedstraw",bedstraw; Rate 4 g/ha,40
same,"Plant response rating (0 to 100), Bedstraw",bedstraw; Rate 16 g/ha,60
same,"Plant response rating, Morningglory","morningglory; POSTEMERGENCE, Rate 50 g/ha",10
same,"Plant response rating, Morningglory","morningglory; PREEMERGENCE, Rate 50 g/ha",0
same,"Plant response rating, Morningglory","morningglory; Rate 200 g/ha, POSTEMERGENCE",10
same,"Plant response rating, Morningglory","morningglory; Rate 200 g/ha, PREEMERGENCE",0
same,"Plant response rating, Wheat","wheat [1]; POSTEMERGENCE, Rate 50 g/ha",3
same,"Plant response rating, Wheat","wheat [1]; PREEMERGENCE, Rate 50 g/ha",0
same,"Plant response rating, Wheat","wheat [1]; Rate 200 g/ha, POSTEMERGENCE",8
same,"Plant response rating, Wheat","wheat [1]; Rate 200 g/ha, PREEMERGENCE",2
same,"Plant response rating, Crabgrass",crabgrass; 62 g/ha,20
same,"Plant response rating, Crabgrass",crabgrass; 250 g/ha,60
same,"Plant response rating (0 to 100), Crabgrass",crabgrass; Rate 4 g/ha,10
same,"Plant response rating (0 to 100), Crabgrass",crabgrass; Rate 16 g/ha,20
same,"Plant response rating, Velvetleaf","velvetleaf; POSTEMERGENCE, Rate 50 g/ha",10
same,"Plant response rating, Velvetleaf","velvetleaf; PREEMERGENCE, Rate 50 g/ha",5
same,"Plant response rating, Velvetleaf","velvetleaf; Rate 200 g/ha, POSTEMERGENCE",10
same,"Plant response rating, Velvetleaf","velvetleaf; Rate 200 g/ha, PREEMERGENCE",10
same,"Plant response rating, Cotton","cotton; POSTEMERGENCE, Rate 50 g/ha",10
same,"Plant response rating, Cotton","cotton; POSTEMERGENCE, Rate 200 g/ha",10
same,"Plant response rating, Cotton","cotton; PREEMERGENCE, Rate 50 g/ha",0
same,"Plant response rating, Cotton","cotton; Rate 200 g/ha, PREEMERGENCE",1
same,"Plant response rating, Wild oat",wild oat; 62 g/ha,50
same,"Plant response rating, Wild oat",wild oat; 250 g/ha,60
same,"Plant response rating (0 to 100), Wild oat",wild oat; Rate 4 g/ha,20
same,"Plant response rating (0 to 100), Wild oat",wild oat; Rate 16 g/ha,40
same,"Plant response rating, Rape",rape; 62 g/ha,100
same,"Plant response rating, Rape",rape; 250 g/ha,100
same,"Plant response rating (0 to 100), Rape",rape; Rate 4 g/ha,80
same,"Plant response rating (0 to 100), Rape",rape; Rate 16 g/ha,100
same,"Plant response rating, Wheat",wheat [2]; 62 g/ha,50
same,"Plant response rating, Wheat",wheat [2]; 250 g/ha,60
same,"Plant response rating (0 to 100), Wheat",wheat [2]; Rate 4 g/ha,20
same,"Plant response rating (0 to 100), Wheat",wheat [2]; Rate 16 g/ha,40
same,"Plant response rating, Barnyardgrass","barnyardgrass; POSTEMERGENCE, Rate 50 g/ha",7
same,"Plant response rating, Barnyardgrass","barnyardgrass; POSTEMERGENCE, Rate 200 g/ha",9
same,"Plant response rating, Barnyardgrass","barnyardgrass; PREEMERGENCE, Rate 50 g/ha",0
same,"Plant response rating, Barnyardgrass","barnyardgrass; Rate 200 g/ha, PREEMERGENCE",2
same,"Plant response rating, Giant foxtail",giant foxtail; 62 g/ha,50
same,"Plant response rating, Giant foxtail",giant foxtail; 250 g/ha,85
same,"Plant response rating (0 to 100), Giant foxtail",giant foxtail; Rate 4 g/ha,40
same,"Plant response rating (0 to 100), Giant foxtail",giant foxtail; Rate 16 g/ha,50
same,"Plant response rating, Blackgrass",blackgrass; 62 g/ha,60
same,"Plant response rating, Blackgrass",blackgrass; 250 g/ha,90
same,"Plant response rating (0 to 100), Blackgrass",blackgrass; Rate 4 g/ha,20
same,"Plant response rating (0 to 100), Blackgrass",blackgrass; Rate 16 g/ha,30
CC(C)OC(=O)c1cc(-c2nn3c(c2Cl)CCCC3)c(F)cc1Cl [Compound 44],"Plant response rating, Bedstraw",bedstraw; 62 g/ha,80
same,"Plant response rating, Bedstraw",bedstraw; 250 g/ha,100
same,"Plant response rating (0 to 100), Bedstraw",bedstraw; Rate 4 g/ha,60
same,"Plant response rating (0 to 100), Bedstraw",bedstraw; Rate 16 g/ha,80
same,"Plant response rating, Morningglory","morningglory; POSTEMERGENCE, Rate 50 g/ha",9
same,"Plant response rating, Morningglory","morningglory; PREEMERGENCE, Rate 50 g/ha",7
same,"Plant response rating, Morningglory","morningglory; Rate 200 g/ha, POSTEMERGENCE",10
same,"Plant response rating, Morningglory","morningglory; Rate 200 g/ha, PREEMERGENCE",10
same,"Plant response rating, Wheat","wheat [1]; POSTEMERGENCE, Rate 50 g/ha",6
same,"Plant response rating, Wheat","wheat [1]; PREEMERGENCE, Rate 50 g/ha",3
same,"Plant response rating, Wheat","wheat [1]; Rate 200 g/ha, POSTEMERGENCE",6
same,"Plant response rating, Wheat","wheat [1]; Rate 200 g/ha, PREEMERGENCE",3
same,"Plant response rating, Crabgrass",crabgrass; 62 g/ha,40
same,"Plant response rating, Crabgrass",crabgrass; 250 g/ha,50
same,"Plant response rating (0 to 100), Crabgrass",crabgrass; Rate 4 g/ha,20
same,"Plant response rating (0 to 100), Crabgrass",crabgrass; Rate 16 g/ha,30
same,"Plant response rating, Velvetleaf","velvetleaf; POSTEMERGENCE, Rate 50 g/ha",9
same,"Plant response rating, Velvetleaf","velvetleaf; PREEMERGENCE, Rate 50 g/ha",4
same,"Plant response rating, Velvetleaf","velvetleaf; Rate 200 g/ha, POSTEMERGENCE",10
same,"Plant response rating, Velvetleaf","velvetleaf; Rate 200 g/ha, PREEMERGENCE",8
same,"Plant response rating, Cotton","cotton; POSTEMERGENCE, Rate 50 g/ha",10
same,"Plant response rating, Cotton","cotton; POSTEMERGENCE, Rate 200 g/ha",10
same,"Plant response rating, Cotton","cotton; PREEMERGENCE, Rate 50 g/ha",1
same,"Plant response rating, Cotton","cotton; Rate 200 g/ha, PREEMERGENCE",8
same,"Plant response rating, Wild oat",wild oat; 62 g/ha,50
same,"Plant response rating, Wild oat",wild oat; 250 g/ha,60
same,"Plant response rating (0 to 100), Wild oat",wild oat; Rate 4 g/ha,20
same,"Plant response rating (0 to 100), Wild oat",wild oat; Rate 16 g/ha,30
same,"Plant response rating, Rape",rape; 62 g/ha,100
same,"Plant response rating, Rape",rape; 250 g/ha,100
same,"Plant response rating (0 to 100), Rape",rape; Rate 4 g/ha,40
same,"Plant response rating (0 to 100), Rape",rape; Rate 16 g/ha,70
same,"Plant response rating, Wheat",wheat [2]; 62 g/ha,50
same,"Plant response rating, Wheat",wheat [2]; 250 g/ha,80
same,"Plant response rating (0 to 100), Wheat",wheat [2]; Rate 4 g/ha,20
same,"Plant response rating (0 to 100), Wheat",wheat [2]; Rate 16 g/ha,30
same,"Plant response rating, Barnyardgrass","barnyardgrass; POSTEMERGENCE, Rate 50 g/ha",8
same,"Plant response rating, Barnyardgrass","barnyardgrass; POSTEMERGENCE, Rate 200 g/ha",10
same,"Plant response rating, Barnyardgrass","barnyardgrass; PREEMERGENCE, Rate 50 g/ha",5
same,"Plant response rating, Barnyardgrass","barnyardgrass; Rate 200 g/ha, PREEMERGENCE",8
same,"Plant response rating, Giant foxtail",giant foxtail; 62 g/ha,60
same,"Plant response rating, Giant foxtail",giant foxtail; 250 g/ha,100
same,"Plant response rating (0 to 100), Giant foxtail",giant foxtail; Rate 4 g/ha,20
same,"Plant response rating (0 to 100), Giant foxtail",giant foxtail; Rate 16 g/ha,40
same,"Plant response rating, Blackgrass",blackgrass; 62 g/ha,60
same,"Plant response rating, Blackgrass",blackgrass; 250 g/ha,80
same,"Plant response rating (0 to 100), Blackgrass",blackgrass; Rate 4 g/ha,30
same,"Plant response rating (0 to 100), Blackgrass",blackgrass; Rate 16 g/ha,40
